Reference: patent US6096863A, “Self-assembling amphiphiles for construction of peptide secondary structures” (Regents of the University of Minnesota, priority 1996, dated 2000)
Starred links: 1 amine or outer side, 2 acyl side, 3 side chain; linkers in the order of their positions; H or OH if unused. Non-standard residues stand in square brackets, D forms with d. Residues, ends and D or L forms follow the SMILES beside them. *: point of attachment. X2 = CCCCCCCCCCCCCCCCOC(=O)CC[C@H](N*)C(=O)OCCCCCCCCCCCCCCCC; X1 = CCCCCCCCCCCCCCOC(=O)CC[C@H](N*)C(=O)OCCCCCCCCCCCCCC; X3 = CCCCCCCCCCCCOC(=O)CC[C@H](N*)C(=O)OCCCCCCCCCCCC; Hyp = O=C(O)[C@@H]1C[C@@H](O)CN1; Suc = O=C(CCC(=O)[*:2])[*:1]

How the values were obtained:
[1] = Surface pressure-area isotherms of monolayers at the air-water interface; assay type: physicochemical; details: for limiting surface area (monolayer reaches maximum surface pressure and collapses): 22° C., pure water subphase
Description: All isotherms were obtained at 22° C. after spreading a peptide amphiphile solution in hexane-CHCl3 -methanol (5:4:1) over a pure water subphase. After 15 minutes, the monolayer was compressed laterally with constant speed for 10 mm/minute on a computerized KSV LB5000 Langmuir-Blodgett instrument and surface pressure detected using film balance with a platinum Wilhemy plate.

[2] = Circular dichroism spectroscopy; assay type: physicochemical; details: 25° C., 0.5 mM in H2O, λ=225 nm
Description: Spectra were recorded on a JASCO J-710 spectropolarimeter using a thermostated 0.1 mm quartz cell. Thermal transition curves were obtained by recording the molar ellipticity ([θ]) in the range of 10-80° C. at λ=225 nm. The peptide and peptide-amphiphile concentrations were 0.5 mM in H2 O at 25° C.

melanoma cell = details: cited from earlier work

SMILES | limiting surface area (monolayer reaches maximum surface pressure and collapses) [1] | CD spectrum, positive ellipticity (poly-Pro II / triple-helix-like structure) [2] | surface activity / formation of monolayers at the air-water interface [1] | melanoma cell adhesion and spreading (melanoma cell)
CCCCCCCCCCCCCCOC(=O)CC[C@H](NC(=O)CCC(=O)NCC(=O)N[C@H](C(=O)N[C@@H](CCCCN)C(=O)NCC(=O)N[C@@H](CC(=O)O)C(=O)N[C@@H](CCCCN)C(=O)NCC(=O)N[C@@H](CC(N)=O)C(=O)N1CCC[C@H]1C(=O)NCC(=O)N[C@@H](Cc1c[nH]c2ccccc12)C(=O)N1CCC[C@H]1C(=O)NCC(=O)N[C@@H](C)C(=O)N1CCC[C@H]1C(=O)NCC(=O)N1CCC[C@H]1C(=O)N1C[C@H](O)C[C@H]1C(=O)NCC(=O)N1CCC[C@H]1C(=O)N1C[C@H](O)C[C@H]1C(=O)NCC(=O)N1CCC[C@H]1C(=O)N1C[C@H](O)C[C@H]1C(=O)NCC(=O)N1CCC[C@H]1C(=O)N1C[C@H](O)C[C@H]1C(N)=O)C(C)C)C(=O)OCCCCCCCCCCCCCC [(C14)2 -Glu-C2 -[IV-H1]-(Gly-Pro-Hyp)4] ({X1-Suc}-GVKGDKGNPGWPGAPGP[Hyp]GP[Hyp]GP[Hyp]GP[Hyp]-NH2) | 0.6 nm^2 /molecule | – | – | –
CCCCCCCCCCCCCCCCOC(=O)CC[C@H](NC(=O)CCC(=O)NCC(=O)N1CCC[C@H]1C(=O)N1C[C@H](O)C[C@H]1C(=O)NCC(=O)N1CCC[C@H]1C(=O)N1C[C@H](O)C[C@H]1C(=O)NCC(=O)N1CCC[C@H]1C(=O)N1C[C@H](O)C[C@H]1C(=O)NCC(=O)N1CCC[C@H]1C(=O)N1C[C@H](O)C[C@H]1C(=O)NCC(=O)N[C@H](C(=O)N[C@@H](CCCCN)C(=O)NCC(=O)N[C@@H](CC(=O)O)C(=O)N[C@@H](CCCCN)C(=O)NCC(=O)N[C@@H](CC(N)=O)C(=O)N1CCC[C@H]1C(=O)NCC(=O)N[C@@H](Cc1c[nH]c2ccccc12)C(=O)N1CCC[C@H]1C(=O)NCC(=O)N[C@@H](C)C(=O)N1CCC[C@H]1C(N)=O)C(C)C)C(=O)OCCCCCCCCCCCCCCCC [(C16)2 -Glu-C2 -(Gly-Pro-Hyp)4 -[IV-H1]] ({X2-Suc}-GP[Hyp]GP[Hyp]GP[Hyp]GP[Hyp]GVKGDKGNPGWPGAP-NH2) | 0.6 nm^2 /molecule | – | – | –
CC(C)[C@H](NC(=O)CN)C(=O)N[C@@H](CCCCN)C(=O)NCC(=O)N[C@@H](CC(=O)O)C(=O)N[C@@H](CCCCN)C(=O)NCC(=O)N[C@@H](CC(N)=O)C(=O)N1CCC[C@H]1C(=O)NCC(=O)N[C@@H](Cc1c[nH]c2ccccc12)C(=O)N1CCC[C@H]1C(=O)NCC(=O)N[C@@H](C)C(=O)N1CCC[C@H]1C(N)=O [[IV-H1]] (H-GVKGDKGNPGWPGAP-NH2) | – | did not show any positive ellipticity | not surface active | promote melanoma cell adhesion and spreading
CCCCCCCCCCCCOC(=O)CC[C@H](NC(=O)CCC(=O)NCC(=O)N[C@H](C(=O)N[C@@H](CCCCN)C(=O)NCC(=O)N[C@@H](CC(=O)O)C(=O)N[C@@H](CCCCN)C(=O)NCC(=O)N[C@@H](CC(N)=O)C(=O)N1CCC[C@H]1C(=O)NCC(=O)N[C@@H](Cc1c[nH]c2ccccc12)C(=O)N1CCC[C@H]1C(=O)NCC(=O)N[C@@H](C)C(=O)N1CCC[C@H]1C(N)=O)C(C)C)C(=O)OCCCCCCCCCCCC [(C12)2 -Glu-C2-[IV-H1]] ({X3-Suc}-GVKGDKGNPGWPGAP-NH2) | – | no positive ellipticity | – | –
